Experimental data: patent publication US20210221832A1, “SUBSTITUTED PYRIDOINDOLES FOR THE TREATMENT AND PROPHYLAXIS OF BACTERIAL INFECTION” (Hoffmann-La Roche Inc., priority 2018, published 2021)
In brackets after ≈: the same amount, converted by molar mass.

experiment: Lyophilisation Solubility Assay (LYSA); format: physicochemical; settings: aqueous buffer, thermodynamic from solid; 0.05 M phosphate buffer, pH 6.5
Method: The solubility of compounds of present invention was assessed by LYSA assay. Samples were prepared in duplicate from 10 mM DMSO stock solutions (20 μL) diluted in 30 μL pure DMSO. After evaporation of DMSO with a centrifugal vacuum evaporator, the residue was dissolved in 0.05 M phosphate buffer (150 μL, pH 6.5), which was stirred for one hour and shook for two hours. After one night, the solution was filtered using a microtiter filter plate. Then the filtrate and its 1/10 dilution were analyzed by HPLC-UV. In addition, a four-point calibration curve was prepared from the 10 mM stock solutions and used for the solubility determination of the compounds.

Row | solubility [µg/mL] | SMILES
1 | > 595 | CN1C[C@@H]2CCN(c3c(-c4cnc5c(c4)c(=O)c(C(=O)O)cn5C)cnc4[nH]c5c(N(C)C(=O)OCOP(=O)(O)O)cc(F)c(C#N)c5c34)[C@@H]2C1 [Example 1.01, 6-[5-Cyano-6-fluoro-8-[methyl(phosphonooxymethoxycarbonyl)amino]-4-[(3aS,6aS)-5-methyl-2,3,3a,4,6,6a-hexahydropyrrolo[2,3-c]pyrrol-1-yl]-9H-pyrido[2,3-b]indol-3-yl]-1-methyl-4-oxo-1,8-naphthyridine-3-carboxylic acid]
2 | > 875 | CN1C[C@@H]2CCN(c3c(-c4ccc5ccc(C(=O)O)c(=O)n5c4)cnc4[nH]c5c(N(C)C(=O)OCOP(=O)(O)O)cc(F)c(F)c5c34)[C@@H]2C1 [Example 1.32, 7-[5,6-Difluoro-8-[methyl(phosphonooxymethoxycarbonyl)amino]-4-[(3aS,6aS)-5-methyl-2,3,3a,4,6,6a-hexahydropyrrolo[2,3-c]pyrrol-1-yl]-9H-pyrido[2,3-b]indol-3-yl]-4-oxo-quinolizine-3-carboxylic acid]
3 | 680 (≈ 949 µM) | CN1C[C@@H]2CCN(c3c(-c4ccc5ccc(C(=O)O)c(=O)n5c4)cnc4[nH]c5c(N(C)C(=O)OCOC(=O)/C=C/C(=O)O)cc(F)c(F)c5c34)[C@@H]2C1 [Example 1.33, 7-[5,6-Difluoro-8-[methyl-[[(E)-3-carboxyprop-2-enoyl]oxymethoxycarbonyl]amino]-4-[(3aS,6aS)-5-methyl-2,3,3a,4,6,6a-hexahydropyrrolo[2,3-c]pyrrol-1-yl]-9H-pyrido[2,3-b]indol-3-yl]-4-oxo-quinolizine-3-carboxylic acid]
4 | > 930 | CN1C[C@@H]2CCN(c3c(-c4ccc5ccc(C(=O)O)c(=O)n5c4)cnc4[nH]c5c(N(C)C(=O)CNC(=O)CNC(=O)CN)cc(F)c(F)c5c34)[C@@H]2C1 [Example 1.34, 7-[8-[[2-[[2-[(2-Aminoacetyl)amino]acetyl]amino]acetyl]-methyl-amino]-5,6-difluoro-4-[(3aS,6aS)-5-methyl-2,3,3a,4,6,6a-hexahydropyrrolo[2,3-c]pyrrol-1-yl]-9H-pyrido[2,3-b]indol-3-yl]-4-oxo-quinolizine-3-carboxylic acid]
5 | > 915 | CN1C[C@@H]2CCN(c3c(-c4ccc5ccc(C(=O)O)c(=O)n5c4)cnc4[nH]c5c(N(C)C(=O)CNC(=O)CN)cc(F)c(F)c5c34)[C@@H]2C1 [Example 1.35, 7-[8-[[2-[(2-Aminoacetyl)amino]acetyl]-methyl-amino]-5,6-difluoro-4-[(3aS,6aS)-5-methyl-2,3,3a,4,6,6a-hexahydropyrrolo[2,3-c]pyrrol-1-yl]-9H-pyrido[2,3-b]indol-3-yl]-4-oxo-quinolizine-3-carboxylic acid]
6 | > 1000 | CNc1cc(F)c(F)c2c3c(N4CC[C@H]5CN(C)C[C@H]54)c(-c4ccc5ccc(C(=O)O)c(=O)n5c4)cn(COP(=O)(O)O)c-3nc12 [Example 1.36, 7-[5,6-Difluoro-8-(methylamino)-1-(phosphonooxymethyl)-4-[(3aS,6aS)-5-methyl-2,3,3a,4,6,6a-hexahydropyrrolo[2,3-c]pyrrol-1-yl]pyrido[2,3-b]indol-3-yl]-4-oxo-quinolizine-3-carboxylic acid]
7 | 315 (≈ 458 µM) | CNc1cc(F)c(F)c2c1[nH]c1ncc(-c3ccc4ccc(C(=O)OCCOC(=O)[C@@H](N)C(C)C)c(=O)n4c3)c(N3CC[C@H]4CN(C)C[C@H]43)c12 [Example 1.37, 2-[(2S)-2-Amino-3-methyl-butanoyl]oxyethyl 7-[5,6-difluoro-8-(methylamino)-4-[(3aS,6aS)-5-methyl-2,3,3a,4,6,6a-hexahydropyrrolo[2,3-c]pyrrol-1-yl]-9H-pyrido[2,3-b]indol-3-yl]-4-oxo-quinolizine-3-carboxylate]
8 | 595 (≈ 834 µM) | CN1C[C@@H]2CCN(c3c(-c4cnc5c(c4)c(=O)c(C(=O)O)cn5C)cnc4[nH]c5c(N(C)C(=O)OCOP(=O)(O)O)cc(F)c(F)c5c34)[C@@H]2C1 [Example 1.43, 6-[5,6-Difluoro-8-[methyl(phosphonooxymethoxycarbonyl)amino]-4-[(3aS,6aS)-5-methyl-2,3,3a,4,6,6a-hexahydropyrrolo[2,3-c]pyrrol-1-yl]-9H-pyrido[2,3-b]indol-3-yl]-1-methyl-4-oxo-1,8-naphthyridine-3-carboxylic acid]

Second part, the molecule before the results:

Row | SMILES | solubility [µg/mL]
9 | CN1C[C@@H]2CCN(c3c(-c4cnc5c(c4)c(=O)c(C(=O)O)cn5C)cnc4[nH]c5c(N(C)C=O)cc(F)c(C#N)c5c34)[C@@H]2C1 [Example 1.03, 6-[5-Cyano-6-fluoro-8-[formyl(methyl)amino]-4-[(3aS,6aS)-5-methyl-2,3,3a,4,6,6a-hexahydropyrrolo[2,3-c]pyrrol-1-yl]-9H-pyrido[2,3-b]indol-3-yl]-1-methyl-4-oxo-1,8-naphthyridine-3-carboxylic acid] | > 730
10 | CNc1cc(F)c(C#N)c2c1[nH]c1ncc(-c3cnc4c(c3)c(=O)c(C(=O)O)cn4C)c(N3CC[C@H]4C[N+](C)(COP(=O)(O)O)C[C@H]43)c12 (stereo partly drawn) [Example 1.07, 6-[5-Cyano-6-fluoro-8-(methylamino)-4-[(3aS,6aS)-5-methyl-5-(phosphonooxymethyl)-2,3,3a,4,6,6a-hexahydropyrrolo[2,3-c]pyrrol-5-ium-1-yl]-9H-pyrido[2,3-b]indol-3-yl]-1-methyl-4-oxo-1,8-naphthyridine-3-carboxylic acid] | > 1060
11 | CN1C[C@@H]2CCN(c3c(-c4cnc5c(c4)c(=O)c(C(=O)O)cn5C)cnc4[nH]c5c(N(C)C=O)cc(F)c(F)c5c34)[C@@H]2C1 [Example 1.26, 6-[5,6-Difluoro-8-[formyl(methyl)amino]-4-[(3aS,6aS)-5-methyl-2,3,3a,4,6,6a-hexahydropyrrolo[2,3-c]pyrrol-1-yl]-9H-pyrido[2,3-b]indol-3-yl]-1-methyl-4-oxo-1,8-naphthyridine-3-carboxylic acid] | > 783
12 | CN1C[C@@H]2CCN(c3c(-c4cnc5c(c4)c(=O)c(C(=O)O)cn5C)cnc4[nH]c5c(N(C)S(=O)(=O)O)cc(F)c(F)c5c34)[C@@H]2C1 [Example 1.27, 6-[5,6-Difluoro-8-[methyl(sulfo)amino]-4-[(3aS,6aS)-5-methyl-2,3,3a,4,6,6a-hexahydropyrrolo[2,3-c]pyrrol-1-yl]-9H-pyrido[2,3-b]indol-3-yl]-1-methyl-4-oxo-1,8-naphthyridine-3-carboxylic acid] | > 685
13 | CN1C[C@@H]2CCN(c3c(-c4cnc5c(c4)c(=O)c(C(=O)O)cn5C)cnc4[nH]c5c(N(C)C(=O)OCOC(=O)/C=C/C(=O)O)cc(F)c(F)c5c34)[C@@H]2C1 [Example 1.28, 6-[5,6-Difluoro-8-[methyl-[[(E)-3-carboxyprop-2-enoyl]oxymethoxycarbonyl]amino]-4-[(3aS,6aS)-5-methyl-2,3,3a,4,6,6a-hexahydropyrrolo[2,3-c]pyrrol-1-yl]-9H-pyrido[2,3-b]indol-3-yl]-1-methyl-4-oxo-1,8-naphthyridine-3-carboxylic acid] | > 945

experiment: Plasma stability assay in human plasma; format: in vitro ADME; settings: 10 μM prodrug, 37° C., prodrug remaining at 30 min compared to 0 min
Method: (§1) The degradation of prodrug and formation of active drug of present invention were monitored by current plasma stability assay. The assay is conducted in human plasma (purchased from Bioreclamation, Lot No. BRH1380385) or mouse plasma (prepared in-house using CD-1 mouse purchased from Vital River). Plasma is spiked with the test prodrug (10 μM final concentration) dissolved in DMSO (or water) and incubated at 37° C. Aliquots are removed at 0, 5, 15 and 30 minutes of incubation time, quenched with appropriate volume of internal standard solution (I.S., 0.2 μM of tolbutamide, prepared in ACN and water (1:1, v/v)), according to the mass spectrometer intensity of both analytes. Samples are centrifuged, the supernatant are removed and analyzed by LC-MS/MS. The degradation of prodrug was illustrated by calculation of percent remaining of prodrug at 30 min compared to that at 0 min (Table 2).

Row | Percent Remaining (%) H [%] | SMILES
14 | 1.9 | CNc1cc(F)c(C#N)c2c1[nH]c1ncc(-c3cnc4c(c3)c(=O)c(C(=O)OCc3oc(=O)oc3C)cn4C)c(N3CC[C@H]4CN(C)C[C@H]43)c12 [Example 1.13, (5-Methyl-2-oxo-1,3-dioxol-4-yl)methyl 6-[5-cyano-6-fluoro-8-(methylamino)-4-[(3aS,6aS)-5-methyl-2,3,3a,4,6,6a-hexahydropyrrolo[2,3-c]pyrrol-1-yl]-9H-pyrido[2,3-b]indol-3-yl]-1-methyl-4-oxo-1,8-naphthyridine-3-carboxylate]
15 | 67.2 | CN1C[C@H]2CCN(c3c(-c4cnc5c(c4)c(=O)c(C(=O)O)cn5C)cnc4[nH]c5c(N(C)C(=O)OCOP(=O)(O)O)cc(F)c(F)c5c34)[C@H]2C1 [Example 1.18, 6-[5,6-Difluoro-8-[methyl(phosphonooxymethoxycarbonyl)amino]-4-[(3aR,6aR)-5-methyl-2,3,3a,4,6,6a-hexahydropyrrolo[2,3-c]pyrrol-1-yl]-9H-pyrido[2,3-b]indol-3-yl]-1-methyl-4-oxo-1,8-naphthyridine-3-carboxylic acid]

Row | SMILES | Percent Remaining (%) H [%]
16 | CC(=O)OC(C)OC(=O)N(C)c1cc(F)c(C#N)c2c1[nH]c1ncc(-c3cnc4c(c3)c(=O)c(C(=O)O)cn4C)c(N3CC[C@H]4CN(C)C[C@H]43)c12 (stereo partly drawn) [Example 1.15, 6-[8-[1-Acetoxyethoxycarbonyl(methyl)amino]-5-cyano-6-fluoro-4-[(3aS,6aS)-5-methyl-2,3,3a,4,6,6a-hexahydropyrrolo[2,3-c]pyrrol-1-yl]-9H-pyrido[2,3-b]indol-3-yl]-1-methyl-4-oxo-1,8-naphthyridine-3-carboxylic acid] | 50.5

experiment: Plasma stability assay in mouse plasma; format: in vitro ADME, CD-1 mouse; settings: 10 μM prodrug, 37° C., prodrug remaining at 30 min compared to 0 min
Method: as §1

Row | Percent Remaining (%) M [%] | SMILES
17 | 0.6 | CNc1cc(F)c(C#N)c2c1[nH]c1ncc(-c3cnc4c(c3)c(=O)c(C(=O)OCc3oc(=O)oc3C)cn4C)c(N3CC[C@H]4CN(C)C[C@H]43)c12 [Example 1.13, (5-Methyl-2-oxo-1,3-dioxol-4-yl)methyl 6-[5-cyano-6-fluoro-8-(methylamino)-4-[(3aS,6aS)-5-methyl-2,3,3a,4,6,6a-hexahydropyrrolo[2,3-c]pyrrol-1-yl]-9H-pyrido[2,3-b]indol-3-yl]-1-methyl-4-oxo-1,8-naphthyridine-3-carboxylate]
18 | 72.0 | CN1C[C@H]2CCN(c3c(-c4cnc5c(c4)c(=O)c(C(=O)O)cn5C)cnc4[nH]c5c(N(C)C(=O)OCOP(=O)(O)O)cc(F)c(F)c5c34)[C@H]2C1 [Example 1.18, 6-[5,6-Difluoro-8-[methyl(phosphonooxymethoxycarbonyl)amino]-4-[(3aR,6aR)-5-methyl-2,3,3a,4,6,6a-hexahydropyrrolo[2,3-c]pyrrol-1-yl]-9H-pyrido[2,3-b]indol-3-yl]-1-methyl-4-oxo-1,8-naphthyridine-3-carboxylic acid]

Row | SMILES | Percent Remaining (%) M [%]
19 | CC(=O)OC(C)OC(=O)N(C)c1cc(F)c(C#N)c2c1[nH]c1ncc(-c3cnc4c(c3)c(=O)c(C(=O)O)cn4C)c(N3CC[C@H]4CN(C)C[C@H]43)c12 (stereo partly drawn) [Example 1.15, 6-[8-[1-Acetoxyethoxycarbonyl(methyl)amino]-5-cyano-6-fluoro-4-[(3aS,6aS)-5-methyl-2,3,3a,4,6,6a-hexahydropyrrolo[2,3-c]pyrrol-1-yl]-9H-pyrido[2,3-b]indol-3-yl]-1-methyl-4-oxo-1,8-naphthyridine-3-carboxylic acid] | 4.7
